Key:
adenosine A2B receptor = adenosine A2B receptor (Homo sapiens (Human), UniProt P29275); test: Adenosine receptor activity assay (Table 1), A2B activity; format: biochemical; settings: for Ratio: A2A activity to A2B activity (A2A/A2B); for IC50: read-out: Ave A2B cAMP IC50
adenosine A2A receptor = adenosine A2A receptor (Homo sapiens (Human), UniProt P29274); test: Adenosine receptor activity assay (Table 1), A2A activity; format: biochemical; settings: read-out: Ave A2A cAMP IC50
Sequence of adenosine A2A receptor (P29274 whole entry): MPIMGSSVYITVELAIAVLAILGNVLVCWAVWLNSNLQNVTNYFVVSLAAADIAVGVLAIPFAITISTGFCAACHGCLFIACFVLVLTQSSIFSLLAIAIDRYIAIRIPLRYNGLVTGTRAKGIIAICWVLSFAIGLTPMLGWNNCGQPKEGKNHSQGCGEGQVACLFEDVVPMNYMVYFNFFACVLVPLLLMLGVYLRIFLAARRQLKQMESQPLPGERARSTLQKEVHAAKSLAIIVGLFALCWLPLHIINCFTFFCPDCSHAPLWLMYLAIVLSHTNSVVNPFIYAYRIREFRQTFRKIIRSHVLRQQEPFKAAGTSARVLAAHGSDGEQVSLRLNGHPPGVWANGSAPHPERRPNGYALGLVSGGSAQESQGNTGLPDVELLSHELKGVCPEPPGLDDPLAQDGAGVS

Sequence of adenosine A2B receptor (P29275 whole entry): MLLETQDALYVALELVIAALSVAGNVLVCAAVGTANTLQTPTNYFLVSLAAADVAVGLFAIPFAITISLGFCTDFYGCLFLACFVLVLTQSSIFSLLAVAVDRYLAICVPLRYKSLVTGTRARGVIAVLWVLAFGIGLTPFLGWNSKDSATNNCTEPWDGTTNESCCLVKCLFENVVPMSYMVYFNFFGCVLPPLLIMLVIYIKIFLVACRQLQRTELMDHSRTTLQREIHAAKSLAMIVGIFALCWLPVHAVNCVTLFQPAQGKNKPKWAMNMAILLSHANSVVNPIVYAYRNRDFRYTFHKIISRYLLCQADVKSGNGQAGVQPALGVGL

Row | Compound | Ratio (adenosine A2B receptor) | IC50 (adenosine A2B receptor) | IC50 (adenosine A2A receptor)
1 | COc1cncc(NC(=O)c2nc(N[C@@H](C)c3ccccn3)nc3ccsc23)c1 [Example Z307, (S)—N-(5-Methoxypyridin-3-yl)-2-((1-(pyridin-2-yl)ethyl)amino)thieno[3,2-d]pyrimidine-4-carboxamide] | 5.89 | 10 to 50 nM | 100 to 500 nM
2 | CC(C)(C)OC(=O)N1CCN(C(=O)c2nc(NCc3cncc(F)c3)nc3ccsc23)C1 [Example Z135, tert-Butyl 3-(2-(((5-fluoropyridin-3-yl)methyl)amino)thieno[3,2-d]pyrimidine-4-carbonyl)imidazolidine-1-carboxylate] | 3.11 | 100 to 500 nM | > 500 nM
3 | O=C(NC[C@H]1CCCN1)c1nc(NCc2cncc(F)c2)nc2ccsc12 [Example Z369, (R)-2-(((5-Fluoropyridin-3-yl)methyl)amino)-N-(pyrrolidin-2-ylmethyl)thieno[3,2-d]pyrimidine-4-carboxamide] | 2.26 | > 500 nM | > 500 nM
4 | C[C@H](Nc1nc(C(=O)N2CC[C@H](N)C2)c2sccc2n1)c1cncc(F)c1 [Example Z362, ((S)-3-Aminopyrrolidin-1-yl)(2-(((S)-1-(5-fluoropyridin-3-yl)ethyl)amino)thieno[3,2-d]pyrimidin-4-yl)methanone] | 95.57 | 10 to 50 nM | > 500 nM
5 | CC(=O)N[C@@H]1CCN(C(=O)c2nc(N[C@@H](C)c3ccccn3)nc3ccsc23)C1 [Example Z317, N—((R)-1-(2-(((S)-1-(Pyridin-2-yl)ethyl)amino)thieno[3,2-d]pyrimidine-4-carbonyl)pyrrolidin-3-yl)acetamide] | 6.69 | > 500 nM | > 500 nM
6 | CCc1cc2nc(N[C@@H](C)c3cccnc3)nc(C(=O)N3CCCC3)c2s1 [Example Z214, (S)-(6-Ethyl-2-((1-(pyridin-3-yl)ethyl)amino)thieno[3,2-d]pyrimidin-4-yl)(pyrrolidin-1-yl)methanone] | 6.84 | 100 to 500 nM | > 500 nM
7 | CNCC1CN(C(=O)c2nc(N[C@@H](C)c3cncc(F)c3)nc3ccsc23)C1 [Example Z544, (S)-(2-((1-(5-Fluoropyridin-3-yl)ethyl)amino)thieno[3,2-d]pyrimidin-4-yl)(3-((methylamino)methyl)azetidin-1-yl)methanone] |  | 100 to 500 nM | 
8 | C[C@H](Nc1nc(C(=O)NCCc2ccccc2O)c2sccc2n1)c1cncc(F)c1 [Example Z448, (S)-2-((1-(5-fluoropyridin-3-yl)ethyl)amino)-N-(2-hydroxyphen-ethyl)thieno[3,2-d]pyrimidine-4-carboxamide] |  |  | 100 to 500 nM
9 | COc1cncc(CNC(=O)c2nc(N[C@@H](C)c3ccccn3)nc3ccsc23)c1 [Example Z110, (S)—N-((5-Methoxypyridin-3-yl)methyl)-2-((1-(pyridin-2-yl)ethyl)amino)thieno[3,2-d]pyrimidine-4-carboxamide] | 3.23 | 50 to 100 nM | 
10 | CCC(Nc1nc(C(=O)NCc2ccc(OC)nc2)c2sccc2n1)c1cccnc1 (centres unmarked) [Example Z83, N-((6-Methoxypyridin-3-yl)methyl)-2-((1-(pyridin-3-yl)propyl)amino)thieno[3,2-d]pyrimidine-4-carboxamide] |  |  | 100 to 500 nM
11 | C[C@H](Nc1nc(C(=O)N[C@H]2CC[C@@H](O)C2)c2sccc2n1)c1ccccn1 [Example Z332, N-((1S,3R)-3-Hydroxycyclopentyl)-2-(((S)-1-(pyridin-2-yl)ethyl)amino)thieno[3,2-d]pyrimidine-4-carboxamide] |  |  | 100 to 500 nM
12 | COCC(Nc1nc(C(=O)N2CCC2)c2sccc2n1)c1cccnc1 (centres unmarked) [Example Z126, Azetidin-1-yl(2-((2-methoxy-1-(pyridin-3-yl)ethyl)amino)thieno[3,2-d]pyrimidin-4-yl)methanone] |  | 10 to 50 nM | 
13 | C[C@H](Nc1nc(C(=O)N2CC[C@@H](S(C)(=O)=O)C2)c2sccc2n1)c1ccccn1 [Example Z256] |  | 100 to 500 nM | 
